This is an account of results in patent publication US20230094176A1, “COMPOUNDS AND METHODS FOR IMPROVING IMPAIRED ENDOGENOUS FIBRINOLYSIS USING HISTONE DEACETYLASE INHIBITORS” (Cereno Scientific AB, priority 2011, published 2023).

Read-outs that look alike come from different tables or passages of the source.

The subject of one data set is t-PA mRNA in HUVECs. Briefly: C100: dose giving a 100% increase of t-PA mRNA in HUVEC (24 h). In kind it is cell-based, human. Here is the method: HUVECs are treated with different concentrations of first generation hydroxamates (TSA), second generation hydroxamates (Givinostat, Vorinostat, Belinostat, Panobinostat, SB939, PCI24781), benzamides (Mocetinostat, Entinostat) or short chain fatty acids (SCFA, Butyrate, Phenylbutyrate) for 24 h and t-PA mRNA was measured. The doses giving a 100% increase of t-PA mRNA (C100) was determined and compared to the maximum plasma concentration (Cmax) achieved when the maximum tolerated dose (MTD) of each substance is administered to humans, by dividing the C100 with the Cmax. […] In the table below the values for MTD and Cmax are from the following references (mentioned in the same order as in the table): Steele, N. L. et al Cancer Chemother Pharmacol 67(6):1273-9 (2011), Kelly, K. K. et al J Clin Oncol 23:3923-3931 (2005), Furlan, A. et al Mol Med 17(5-6) 353-362 (2011), Fukutomi, A. et al Invest New Drugs 2011 Apr. 12, Yong, W. P. et al Ann Oncol 22(11) 2516-22 (2011), Garcia-Manero, G. et al. Blood 112: 981-989 (2008), Ryan, Q. C. et al J Clin Oncol 23(17): 3912-3922 (2005), Edelman, M. J. et al Cancer Chemother Pharmacol 51: 439-444, http://www.drugs.com/pro/buphenyl.html *Butyrate was administered in the prodrug form tributyrin.

For the next data set, the system named is E-selectin. Briefly: Regulation of E-selectin expression in endothelial cells. In kind it is cell-based. The conditions noted are these: endothelial cell gene expression.
The conditions of data set [1]: cited from earlier work.
The subject of data set [2] is t-PA mRNA in endothelial cells. Briefly: VPA dose-response on t-PA in the absence or presence of high TNF-alpha (10 ng/ml). In kind it is cell-based, human. Here is the method: In an attempt to mimic the potentially highly inflamed conditions in the local microenvironment surrounding an atherosclerotic plaque, endothelial cells were exposed to a high concentration (10 ng/ml) of TNF-alpha for 24 hours and then VPA was added for an additional 24 h. Cells were treated and mRNA prepared as described in example 1.

A further data set deals with patients with epilepsy. As to conditions: cited from earlier work.
For data set [3], the system named is TNF-a suppressed t-PA mRNA in HUVECs. As to the kind of experiment: TNF-alpha suppression of t-PA mRNA in HUVEC: anti-inflammatory substances versus Givinostat. The format is cell-based, human. Here is the method: HUVECs were treated with TNF-alpha (TNF-a) for 1 h and then optimal concentrations of the anti.inflammatory substances acetylsalicylic acid (ASA, 1 mM) and ibuprofen (IBU, 1 mM) was added. Givinostat was also added to the cells for comparison. Cells were harvested and t-PA mRNA levels analysed according to example 1.

Where [4] appears, read: maximum plasma concentration when the MTD is administered to humans.

The term Cmax denotes the highest concentration seen after dosing. On to `Nc1ccccc1NC(=O)c1ccc(CNc2nccc(-c3cccnc3)n2)cc1` [Mocetinostat], for which the “C100 tPA” value in the data set on t-PA mRNA in HUVECs is 0.1 µM. For the same compound, in the data set on E-selectin, the “regulation of E-selectin expression” value is recorded as “strongly induces expression”. Also, in data set [1] (in vivo), the Cmax was 500 nM and the “Cmax (ng/ml)” value was 200 ng/mL.

`CCCC(CCC)C(=O)O` [VPA, valproic acid]: the “maximum efficacy in inducing t-PA” value in data set [2] (TNF-alpha (10 ng/ml) treated cells) is “about 50 fold”; in data set [2] (control cells (no TNF-alpha)), “about 10 fold”. For the same compound, the “regulation of E-selectin expression” value in the data set with E-selectin is reported as “almost no effect”. Also, the “lowering of the risk of atherothrombotic events” value with patients with epilepsy (patients with epilepsy (Olesen et al 2010)) is recorded as “up to 40%”. The “plasma levels typically obtained during anticonvulsive treatment” value with patients with epilepsy (patients, anticonvulsive VPA treatment) was 350000 to 850000 nM.

As for `O=C(/C=C/c1cccc(S(=O)(=O)Nc2ccccc2)c1)NO` [Belinostat], in the data set with t-PA mRNA in HUVECs, the “C100 tPA” value worked out at 0.2 µM. In addition, the “regulation of E-selectin expression” value with E-selectin is on record as “almost no effect”. Further, in data set [1] (bidaily, oncology treatment or trials), the MTD is 1000 mg bidaily. For the same compound, in data set [1] (setting [4]), the Cmax is 4000 nM and the “Cmax (ng/ml)” value is roughly 1400 ng/mL.

Take `O=C(CCCCCCC(=O)Nc1ccccc1)NO` [Vorinostat]: the “C100 tPA” value in the data set on t-PA mRNA in HUVECs is 0.1 µM. For the same compound, the MTD is 200 mg b.i.d in data set [1] (humans, literature) and 400 mg once daily in data set [1] (once daily, oncology treatment or trials). Moreover, in data set [1] (in vivo), the “Cmax (ng/ml)” value was 300 ng/mL. Besides, in data set [1] (setting [4]), the Cmax is 1100 nM.

`CCN(CC)Cc1ccc2cc(COC(=O)Nc3ccc(C(=O)NO)cc3)ccc2c1.Cl` [Givinostat]: the “C100 tPA” value in the data set with t-PA mRNA in HUVECs is 0.05 µM. Also, the “increase of t-PA” value in data set [3] (HUVEC treated with TNF-a) was 9 fold. In addition, the “effect on TNF-a mediated suppression of t-PA expression” value in data set [3] (HUVEC, TNF-a 1 h then substance, ASA 1 mM, IBU 1 mM) is “completely reverse”. Also, the “regulation of E-selectin expression” value in the data set on E-selectin is listed as “strongly suppresses expression”. Also, in data set [1] (humans, literature), the MTD is given as 200 mg. Besides, in data set [1] (setting [4]), the Cmax was 650 nM and the “Cmax (ng/ml)” value was 300 ng/mL. In addition, the MTD in data set [1] (once daily, in healthy volunteers) is on record as 200 mg once daily.
